Where a SMILES comes first, the peptide text is derived from it. The star is where a group is joined. Cbz = O=C(OCc1ccccc1)*
Columns and labels:
Format in all cases: cell-based
human iPSC-neurons [1] = experiment: Detection of protein aggregates on neuronal microtubules; conditions: 4° C. for 4 h, pre-incubation
Description: After treatments, cultured neurons were fixed with 4% paraformaldehyde for 10 minutes and then permeabilized and washed with 0.1% Triton X-100 in phosphate buffered saline. Protein aggregates were visualized by a dye that intercalates into the denatured and aggregated proteins and becomes fluorescent (Proteostat aggresome detection kit, Enzo, Farmingdale, N.Y.; see Table 2) (Shen, 2011). For accumulation of protein aggregates on the neuronal microtubules, cells were stained with TUBB3 antibody and the protein aggregate dye, and images (188.94 μm×188.94 μm) were taken. In each image, the number of protein aggregates residing on the microtubules was counted and divided by the total length of the TUBB3+ microtubule paths.

human iPSC-neurons [2] = experiment: Evaluation of neuronal microtubule stability in response to cold (tubulin immunofluorescence, TUBB3+ microtubule tracing)
Description: The temperature-dependent experiments in this study were performed at ambient CO2 concentration, which required the use of hibernate-medium (Table 2) to maintain the physiological pH. Experiments were conducted by first incubating cultured neurons (human iPSC-derived, GS iPSC-derived, GS primary, or rat primary cultures) in hibernate-medium for 30 min at room temperature. During this time (pre-incubation), drug treatments (see Other Reagents, Table 1) were introduced to test cold resistance and microtubule stability. The cell culture dishes were then kept in an ambient 37° C. incubator, or in a 4° C. refrigerator. […] The pH of hibernate-medium was stable and maintained the pH between 7.0 and 7.4 even after 16-h incubation at 4° C.
Cultured neurons or rat retinal explants with or without treatments were fixed with 4% paraformaldehyde, permeabilized and washed with 0.1% Triton X-100 in phosphate buffered saline, and stained by antibodies against TUBB3. TUBB3+ microtubule paths in images of 188.94×188.94 μm^2 from human iPSC-derived neuronal cultures and images of 67.48×67.48 μm^2 from rat whole-mount retinas were traced with the ‘Simple Neurite Tracer’ plugin in ImageJ.

[3] = test system: rat retinal ganglion cells (RGCs); experiment: Multielectrode array (MEA) recordings of RGC activity in cold-exposed rat retina explants; conditions: 4° C. for 4 h, Taxol 10 μM
Description: All experiments were carried out under dim red light. Rat retina explants were removed and cut into smaller pieces in hibernate-medium, and divided into different treatment groups for pre-incubation with drugs promoting microtubule stability or a DMSO vehicle control at room temperature for 30 minutes. The cold-exposed groups were incubated in the refrigerator, while the fresh control samples were incubated on the bench in dark at room temperature. […] After 4- or 24-hour incubation, the cold-exposed retinal explants were placed on the bench for 10-15 minutes, and washed twice with fresh hibernate-medium. Retinal explants from all groups were then transferred to oxygenated (95% O2/5% CO2) bicarbonate-buffered AMES medium at room temperature. The sclera and RPE were removed prior to flat mounting the neural retina with the ganglion cell (RGC)-side facing down onto the MEA.
During MEA recording, the neural retinas were perfused with 95% O2/5% CO2-balanced AMES perfusion at 37° C. to measure the spontaneous firing activity of the rat RGCs over the course of 15 minutes. […] For MEA data processing and analyses, the firing spikes of RGCs were first filtered and recorded in MC Rack with a high-pass filter set at 200 Hz, a low-pass filter set at 3000 Hz, and the automatic standard deviation for spike detection threshold was set at −6. […]

human iPSC-neurons [4] = experiment: Live cell imaging of lysosomes using Magic Red and DND-26 (lysosomal membrane permeabilization, LMP); conditions: 4-h at 4° C.
Description: GS and Human iPSC-derived neuronal cultures were prepared in duplicate and incubated with hibernate-medium containing Magic Red (1:1000; ImmunoChemistry Technologies, Bloomington, Minn.) at 37° C. for 25 min, followed by the addition of LysoTracker Green DND-26 (50 nM; Thermo Fisher, Waltham, Mass.; see Table 1) for 5 min. The dye-containing medium was then replaced with fresh hibernate-medium, and one group of cultures was incubated at 4° C. for 1, 4 or 16 h, while the other group remained at 37° C. serving as normal controls. The cold-exposed group was subjected to confocal imaging at various temperatures (10° C., room temperature, or 37° C.), while the control group was imaged at either room temperature or 37° C. […] Magic Red becomes fluorescent after being cleaved by the lysosomal protease cathepsin B, while DND-26 is an acidotropic probe that accumulates in the acidic lysosomal vesicles. When LMP occurs, Magic Red and DND-26 signals become diffused within the cytoplasm of the affected cells. It was determined that cells have LMP if they contain a single Magic Red-stained particle of diameter >5 μm, which is about the size of the neuronal cell nucleus.

For `CC(C)C[C@@H](C=O)NC(=O)[C@H](CC(C)C)NC(=O)[C@H](CC(C)C)NC(=O)OCc1ccccc1` [MG-132] (Cbz-Leu-Leu-Leu-aldehyde), the “protein aggregates along microtubule processes” value (human iPSC-neurons [1]) was “did not show any further increase in aggregation”.
`CCOC(=O)c1ccc(N2NC(=O)/C(=C/c3ccc([N+](=O)[O-])o3)C2=O)cc1` [PYR-41] was tested, and the “microtubule morphology after pre-treatment with ubiquitination inhibitor” value (human iPSC-neurons [2]; human iPSC-neurons, 4-h incubation at 4° C.) was “did not improve microtubule morphology”.
In the case of `CC(=O)O[C@H]1C(=O)[C@@]2(C)[C@H]([C@H](OC(=O)c3ccccc3)[C@]3(O)C[C@H](OC(=O)[C@H](O)[C@@H](NC(=O)c4ccccc4)c4ccccc4)C(C)=C1C3(C)C)[C@]1(OC(C)=O)CO[C@@H]1C[C@@H]2O` [Taxol], the “preservation of microtubules in cold” value (human iPSC-neurons [2]; human iPSC-neurons at 4° C., 10 μM (FIG. 6B)) is reported as “preserved microtubules in cold”, the “protection of neuronal microtubules, low dose” value (human iPSC-neurons [2]; human iPSC-neurons, 16-h cold exposure, 0.1 μM) is reported as “did not protect” and the “spontaneous RGC activity / firing rate distributions (MEA)” value [3] is reported as “did not preserve RGC activity”.
With `O=C1O[C@H]([C@@H](O)CO)C(O)=C1O` [vitamin C, ascorbic acid] the “LMP (number of cells containing diffuse Magic Red)” value (human iPSC-neurons [4]) was “alleviated LMP”.

— patent US11547708B2, “Compositions and methods to protect mammalian tissue against cold and other metabolic stresses” (THE UNITED STATES OF AMERICA, AS REPRESENTED BY THE …, priority 2017, dated 2023)
